The melting point is the temperature, or range, at which the solid turns liquid.

Regarding `CC(C)C[C@@H](NC(=O)c1cnc(N2CCC(N3C(=O)OCc4ccccc43)CC2)c(Cl)c1)C(N)=O`, the melting point is 139 to 142 °C.
The figure for `CC(C)NC(=O)c1ccc(N2CCC(N3C(=O)OCc4ccccc43)CC2)c(S(C)(=O)=O)c1` is 240 to 242 °C; for `CC(C)S(=O)(=O)Nc1ccc(N2CCC(N3C(=O)OCc4ccccc43)CC2)c(Cl)c1` it is 175 °C; for `CC(C)NC(=O)c1ccc(N2CCC(N3C(=O)OCc4ccccc43)CC2)c([N+](=O)[O-])c1` it is 193 to 195 °C.
The compound `CC(C)NS(=O)(=O)c1ccc(N2CCC(N3C(=O)OCc4ccccc43)CC2)c([N+](=O)[O-])c1` registered a melting point of 168 °C.
The compound `O=C1OCc2ccccc2N1C1CCN(c2ccc(NCc3ncc[nH]3)cc2Cl)CC1` came in with a melting point of 222 to 224 °C.
The figure for `CC(C)NC(=O)c1ccc(N2CCC(N3C(=O)OCc4ccccc43)CC2)c(C#N)c1` is 200 °C.
In turn, `Nc1ccc(N2CCC(N3C(=O)OCc4ccccc43)CC2)c(Cl)c1` came in with a melting point of 158 °C.
In turn, `COC(=O)c1ccccc1C(=O)c1ccc(N2CCC(N3C(=O)OCc4ccccc43)CC2)c([N+](=O)[O-])c1` returned a melting point of 177 to 179 °C.
The compound `CC(C)NC(=O)c1ccc(N2CCC(N3C(=O)OCc4ccccc43)CC2)nn1` displayed a melting point of 120 °C.
With `CC(C)NC(=O)c1csc(N2CCC(N3C(=O)OCc4ccccc43)CC2)n1`, the melting point is 214 to 215 °C.
Consider `CC(CO)NC(=O)c1cnc(N2CCC(N3C(=O)OCc4ccccc43)CC2)c(Cl)c1` (centres unmarked), for which the melting point lay within 125 to 128 °C.
`C#CC(C)(C)NC(=O)c1cnc(N2CCC(N3C(=O)OCc4ccccc43)CC2)c(Cl)c1` returned a melting point of 135 to 138 °C.
The same measure for `CN1CCC[C@H]1C(=O)Nc1ccc(N2CCC(N3C(=O)OCc4ccccc43)CC2)c(Cl)c1`: 155 °C; for `O=C(c1ccccc1)c1ccc(N2CCC(N3C(=O)OCc4ccccc43)CC2)c([N+](=O)[O-])c1`: 272 to 273 °C; for `CC(C)C[C@H](NC(=O)c1cnc(N2CCC(N3C(=O)OCc4ccccc43)CC2)c(Cl)c1)C(N)=O`: 139 to 142 °C.
In the case of `COC(=O)c1ccccc1C(=O)c1ccc(N2CCC(N3C(=O)OCc4ccc(Cl)cc43)CC2)c([N+](=O)[O-])c1`, the melting point is 90 to 92 °C.
The compound `O=C(O)c1ccccc1C(=O)c1ccc(N2CCC(N3C(=O)OCc4ccccc43)CC2)c([N+](=O)[O-])c1` gave a melting point of 243 to 244 °C.
`CC(C)C(=O)Nc1ccc(N2CCC(N3C(=O)OCc4ccccc43)CC2)c(Cl)c1`: the melting point amounted to 228 °C.
In turn, `COCCNC(=O)c1ccc(N2CCC(N3C(=O)OCc4ccccc43)CC2)c([N+](=O)[O-])c1` gave a melting point of 192 to 193 °C.
With `CC(C)NC(=O)c1cnc(N2CCC(N3C(=O)COc4ccccc43)CC2)c(Cl)c1`, the melting point fell in the range of 85 to 88 °C.
In turn, `CC(C)NC(=O)c1cnc(N2CCC(N3C(=O)OCc4ccccc43)CC2)nc1C(F)(F)F` came in with a melting point of 217 to 219 °C.
In the case of `N#CC(NC(=O)c1cnc(N2CCC(N3C(=O)OCc4ccccc43)CC2)c(Cl)c1)C(N)=O` (centres unmarked), the melting point is 159 to 162 °C.
`CC(C)[C@@H](NC(=O)c1cnc(N2CCC(N3C(=O)OCc4ccccc43)CC2)c(Cl)c1)C(N)=O` registered a melting point of 140 to 143 °C.
In turn, `CC(C)NC(=O)c1cnc(N2CCC(n3c(=O)oc4ccccc43)CC2)c(Cl)c1` [Example 166, 5-Chloro-N-(1-methylethyl)-6-[4-(2-oxo-1,3-benzoxazol-3(2H)-yl)piperidin-1-yl]pyridine-3-carboxantide] showed a melting point of 162 to 168 °C.
`O=C(O)c1ccccc1C(=O)c1ccc(N2CCC(N3C(=O)CCc4ccccc43)CC2)c([N+](=O)[O-])c1`: the melting point is 201 to 203 °C.
Regarding `NC(=O)c1ccccc1C(=O)c1ccc(N2CCC(N3C(=O)OCc4ccccc43)CC2)c([N+](=O)[O-])c1`, the melting point fell in the range of 180 to 182 °C.
`CC(C)NC(=O)c1cnc(N2CC[C@H](N3C(=O)OCc4ccccc43)[C@@H](C)C2)c(Cl)c1.Cl` gave a melting point of 195 °C.
For `CC(C)NC(=O)c1cnc(N2CCC(N3C(=O)OCc4ccccc43)CC2)nc1`, the melting point was in the range of 236 to 239 °C.

For the origin of these results see patent US6812226B2, “P2X7 receptor antagonists for use in the treatment of inflammatory, immune or cardiovascular disease” (AstraZeneca AB, priority 1999, dated 2004).
